This passage reports IC50 results from the Kinase Knowledgebase extract (Sharma et al. 2016).

The target of the assay is CDK2 (human) (UniProt P24941). Kind of assay: Enzyme Assay.
In general, IC50 refers to the point on the concentration scale where inhibition reaches its midpoint. High values mean a need for much substance, low ones inhibition by little substance. As for `Cc1n[nH]cc1-c1ccnc(NCC2CC2)n1`, the half-maximal inhibitory concentration (IC50) is < 10 µM.

Take `COc1ccc(CNc2cc(-c3cn[nH]c3C(C)C)ccn2)cc1`: the IC50 was < 5 µM.

Take `c1cc(-c2cn[nH]c2C2CCCC2)cc(NC2CCCCCC2)n1`: the 50% inhibitory concentration (IC50) is < 1 µM.

Take `CC(C)c1[nH]ncc1-c1ccnc(NCCCn2ccnc2)c1`: the IC50 was < 1 µM.

As to `CC(C)c1n[nH]cc1-c1ccnc(N[C@@H]2CCc3ccccc32)n1`, the IC50 was < 5 µM.

`Cc1n[nH]cc1-c1ccnc(NCCc2c[nH]c3ccccc23)n1`: the IC50 was < 10 µM.

On to `CCC(CC)c1[nH]ncc1-c1ccnc(NC2CCN(C(=O)OC(C)(C)C)CC2)c1`, for which the IC50 is < 5 µM.

On to `Cc1n[nH]cc1-c1ccnc(NC2CCCCCC2)n1`, for which the IC50 was < 5 µM.

In the case of `CC(C)c1n[nH]cc1-c1nc(NC2CCN(C)CC2)ncc1Br`, the IC50 was < 5 µM.

With `Cc1ccccc1CNc1nccc(-c2c[nH]nc2C)n1`, the half-inhibitory concentration (IC50) was < 10 µM.

Turning to `Cc1ccc(CNc2cc(-c3cn[nH]c3C(C)C)ccn2)cc1`, the IC50 was < 5 µM.

Regarding `Cc1ccc(CNc2cc(-c3cn[nH]c3C3CCCC3)ccn2)cc1`, the concentration for half-maximal inhibition (IC50) is < 5 µM.

In the case of `Cc1n[nH]cc1-c1ccnc(NCC2CCCCCC2)n1`, the concentration for half-maximal inhibition (IC50) is < 15 µM.

Regarding `CC(C)c1[nH]ncc1-c1ccnc(NCc2ccncc2)c1`, the 50% inhibitory concentration (IC50) is < 5 µM.

For the compound `Cc1n[nH]cc1-c1ccnc(NCc2ccc(F)cc2)n1`, the IC50 is < 10 µM.

For the compound `CCCNc1cc(-c2cn[nH]c2C(C)C)ccn1`, the IC50 is < 5 µM.

For the compound `c1ccc2c(c1)CC(Nc1cc(-c3cn[nH]c3C3CC3)ccn1)C2`, the IC50 is < 1 µM.

Regarding `CC(C)c1n[nH]cc1-c1ccnc(NCc2c(F)cccc2F)n1`, the IC50 is < 5 µM.

With `CC(C)c1[nH]ncc1-c1ccnc(NCCN2CCOCC2)c1`, the 50% inhibitory concentration (IC50) is < 10 µM.

Consider `Cc1ccccc1CNc1cc(-c2cn[nH]c2C2CCCC2)ccn1`, for which the IC50 was < 5 µM.

In the case of `CC(C)c1[nH]ncc1-c1ccnc(NCc2ccccc2C(F)(F)F)c1`, the 50% inhibitory concentration (IC50) is < 5 µM.

Turning to `CC(C)c1n[nH]cc1-c1ccnc(NC2CCN(C(=O)OC(C)(C)C)CC2)n1`, the IC50 is < 1 µM.
